Test results reported in patent US12544463B2, “Deuterium substituted positron emission tomography (PET) imaging agents and their pharmacological application” (Five Eleven Pharma Inc., priority 2017, dated 2026).
Like-named read-outs stand apart in the source and are kept apart here. One block for each molecule: values may come before it.

Experiments:
[1] = target: T1, Aβ aggregates of human AD brain homogenates (Homo sapiens, UniProt P05067); experiment: In vitro binding assay for Aβ aggregates of human AD brain homogenates; conditions: for Ki: Avg ± SD, n = 3, read-out: Ki of cold competing drug; for Kd: value used in Cheng-Prusoff equation
T1 construct: from tissue; host or cells: human Alzheimer's disease brain homogenate
Description: Competitive binding assays were performed in 12×75 mm borosilicate glass tubes. The reaction mixture contained 100 μL of AD brain homogenates (20-25 μg), 100 μL of [^18F]AV-45 or [^18F]AV-45-D3 (˜150,000 cpm), and 100 μL of competing compounds (10^−5 to 10^−10 M diluted serially in PBS containing 0.1% bovine serum albumin) in a final volume of […]. Nonspecific binding was defined in the presence of 1 μM of IMPY (6-iodo-2-(4′-dimethylamino-)phenyl-imidazo[1,2-a]pyridine) in the same assay tubes. The mixture was incubated for 60 min at room temperature, and the bound and the free radioactivity were separated by vacuum filtration through Whatman GF/B filters using a Brandel M-24R cell harvester, followed by washing with PBS buffer three times. The radioactivity on the filters was counted with a gamma counter (Wizard^2, Perkin-Elmer). Data were analyzed using the nonlinear least-square curve fitting program LIGAND to determine IC50.

[2] = target: T2, Aβ plaques in AD brain tissue homogenates (Homo sapiens, UniProt P05067); conditions: cited from earlier work; for Ki: read-out: inhibition constant Ki
T2 construct: host or cells: AD brain tissue homogenate

[3] = target: T3, vesicular monoamine transporter 2 (VMAT2) (Rattus norvegicus, UniProt Q01827); experiment: In vitro binding assay for Ki determination, rat striatum homogenates; conditions: for Ki: Avg ± SD, n = 3, read-out: Ki of cold competing drug; for Kd: value used in Cheng-Prusoff equation
T3 construct: Tissue homogenates of striatum (dissected from rat brain) were prepared; from tissue; host or cells: rat brain striatum homogenate
Description: Tissue homogenates of striatum (dissected from rat brain) were prepared in 50 mM of HEPES, pH 7.5, and 0.3 M of sucrose. Compounds were examined for their ability to compete for the binding of ^18F-AV-133 or ^18F-AV-133-D6 (^18F-Ia) (0.15-0.2 nM) at concentrations ranging from 10^−7 to 10^−12 M. The binding assays were performed in glass tubes (12×75 mm) in a final volume of 0.25 mL. […] After incubation for 90 min at room temperature, the bound ligand was separated from the free ligand by filtration through glass fiber filters. The filters were washed three times with 4 mL of ice-cold PBS buffer, pH 7.4 and the radioactivity on the filters was counted with a gamma counter (WIZARD^2, Perkin-Elmer).

[4] = cited from earlier work; for Biodistribution Blood / Biodistribution Bone / Biodistribution Brain / Biodistribution Liver / Biodistribution Muscle: normal male mice, Choi, 2009
[5] = cited from earlier work
[6] = humans, cited from earlier work

T1 sequence (P05067 672-713 limits assumed): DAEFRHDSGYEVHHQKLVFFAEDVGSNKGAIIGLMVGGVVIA
T2 sequence (P05067 672-713 limits assumed): as above
T3 sequence (Q01827 whole entry): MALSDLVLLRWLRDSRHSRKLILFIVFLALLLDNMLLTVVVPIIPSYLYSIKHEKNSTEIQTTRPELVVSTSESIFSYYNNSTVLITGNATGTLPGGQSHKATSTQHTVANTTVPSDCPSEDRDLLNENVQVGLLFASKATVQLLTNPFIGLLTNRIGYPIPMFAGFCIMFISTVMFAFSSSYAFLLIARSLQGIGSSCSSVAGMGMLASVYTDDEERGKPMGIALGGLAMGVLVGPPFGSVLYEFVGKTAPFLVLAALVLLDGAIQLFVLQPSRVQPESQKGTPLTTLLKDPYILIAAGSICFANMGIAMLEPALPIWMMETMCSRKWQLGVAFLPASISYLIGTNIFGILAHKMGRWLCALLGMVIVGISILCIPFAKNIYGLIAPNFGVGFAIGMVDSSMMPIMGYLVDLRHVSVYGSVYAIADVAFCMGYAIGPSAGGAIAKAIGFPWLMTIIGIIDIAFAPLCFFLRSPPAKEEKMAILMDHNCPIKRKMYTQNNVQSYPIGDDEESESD

Compound: [2H]C([2H])([2H])Nc1ccc(/C=C/c2ccc(OCCOCCOCCF)cc2)cc1 [AV-1-D3, IIa2]
Ki ([1]; hot ligand ^18F-AV-45-D3): 4.15 ± 0.75 nM
Ki ([1]; hot ligand ^18F-AV-45): 3.35 ± 0.88 nM

Compound: [2H]C([2H])([2H])Nc1ccc(/C=C/c2ccc(OCCOCCOCCF)nc2)cc1 [AV-45-D3, IIa1]
Ki ([1]; hot ligand ^18F-AV-45-D3): 3.25 ± 0.82 nM
Ki ([1]; hot ligand ^18F-AV-45): 3.44 ± 1.22 nM
Kd [1]: 3.51 nM

Compound: Nc1ccc(C=Cc2ccc(OCCOCCOCCF)nc2)cc1 [AV-160]
reduction of binding affinity vs nonradioactive AV-45 [2]: ≥ 20 fold
Ki [2]: 54 ± 5 nM

Compound: [2H]C([2H])(F)C([2H])([2H])C([2H])([2H])Oc1cc2c(cc1OC)[C@H]1C[C@@H](O)[C@H](CC(C)C)CN1CC2 [Ia (AV-133-D6), (2R,3R,11R)-9-(3-Fluoropropoxy-[1,1,2,2,3,3-D6])-3-isobutyl-10-methoxy-2,3,4,6,7,11b-hexahydro-1H-pyrido[2,1-a]isoquinolin-2-ol]
Ki ([3]; hot ligand ^18F-AV-133-D6): 0.33 ± 0.06 nM
Ki ([3]; hot ligand ^18F-AV-133): 0.32 ± 0.07 nM
Kd [3]: 0.11 nM

Compound: CNc1ccc(/C=C/c2ccc(OCCOCCOCCF)nc2)cc1 [^18F-AV-45]
initial brain uptake relative to metabolite ^18F-AV-160 ([4]; mice, initial uptake): 1.5 fold
Biodistribution Blood ([4]; 2 min): 2.51 ± 0.31 % Dose/g
Biodistribution Bone ([4]; 2 min): 1.33 ± 0.24 % Dose/g
Biodistribution Brain ([4]; 2 min): 7.33 ± 1.54 % Dose/g
Biodistribution Liver ([4]; 2 min): 16.3 ± 5.38 % Dose/g
Biodistribution Muscle ([4]; 2 min): 3.49 ± 0.33 % Dose/g
Biodistribution Blood ([4]; 60 min): 2.37 ± 0.27 % Dose/g
Biodistribution Bone ([4]; 60 min): 3.66 ± 0.30 % Dose/g
Biodistribution Brain ([4]; 60 min): 1.88 ± 0.14 % Dose/g
Biodistribution Liver ([4]; 60 min): 11.1 ± 1.83 % Dose/g
Biodistribution Muscle ([4]; 60 min): 1.33 ± 0.08 % Dose/g
Biodistribution Blood ([4]; 120 min): 1.96 ± 0.23 % Dose/g
Biodistribution Bone ([4]; 120 min): 6.48 ± 0.34 % Dose/g
Biodistribution Brain ([4]; 120 min): 1.80 ± 0.20 % Dose/g
Biodistribution Liver ([4]; 120 min): 8.96 ± 0.28 % Dose/g
Biodistribution Muscle ([4]; 120 min): 1.02 ± 0.07 % Dose/g
Biodistribution Blood ([4]; 180 min): 1.39 ± 0.13 % Dose/g
Biodistribution Bone ([4]; 180 min): 7.83 ± 1.08 % Dose/g
Biodistribution Brain ([4]; 180 min): 1.48 ± 0.15 % Dose/g
Biodistribution Liver ([4]; 180 min): 5.39 ± 0.31 % Dose/g
Biodistribution Muscle ([4]; 180 min): 0.78 ± 0.09 % Dose/g
parent remained in the plasma ([5]; mice, 30 min after intravenous injection): 30%
biologic T1/2 in mouse plasma ([5]; mouse plasma, estimated): less than 30 min
decrease of plasma radioactivity ([6]; within 10 min of the injection): approximately 80%
decrease of plasma radioactivity ([6]; within 20 min of the injection): approximately 90%

Compound: Nc1ccc(/C=C/c2ccc(OCCOCCOCC[18F])nc2)cc1 [^18F-AV-160]
brain uptake ([4]; mice, 2 min after injection): 4.5 % ID/g
brain uptake ([4]; mice, 60 min): 1.8 % ID/g
share of the plasma metabolites ([5]; mice, 30 min after injection): about 48%

The next lines start with results.

Ki ([1]; hot ligand ^18F-AV-45-D3): 3.24 ± 0.76 nM
Ki ([1]; hot ligand ^18F-AV-45): 4.02 ± 0.22 nM
Kd [1]: 3.51 nM
Compound: CNc1ccc(/C=C/c2ccc(OCCOCCOCCF)nc2)cc1 [AV-45, reference compound]
Ki [2]: 2.87 ± 0.17 nM

Ki ([3]; hot ligand ^18F-AV-133-D6): 0.26 ± 0.03 nM
Ki ([3]; hot ligand ^18F-AV-133): 0.33 ± 0.02 nM
Kd [3]: 0.11 nM
Compound: COc1cc2c(cc1OCCCF)CCN1C[C@@H](CC(C)C)[C@H](O)C[C@H]21 [AV-133, reference compound]
